The target of experiment [1] is TcHR96h (nuclear hormone receptor HR96h). The experiment is described as follows: microscale thermophoresis (MST), supported by DARTs; R448A mutation reduces affinity […]. The experiment is classed as binding, Tetranychus cinnabarinus. (Microscale thermophoresis detects binding through changes in fluorescence in a small temperature gradient.)
Experiment [2] shares this target. The experiment is described as above. It is filed as binding, Tetranychus cinnabarinus. The source holds these as a separate data set.

Where two headings read alike, the source gives them in different places.

The Kd is a measure of binding affinity in units of concentration. Low values mean a tighter complex, high ones a looser complex. For the molecule `CC(C)(C)c1ccc(C(C#N)C(=O)c2ccccc2C(F)(F)F)cc1` (centres unmarked) [AB-1], in experiment [1], the affinity, expressed as Kd, was 138 µM.
Take `COCCOC(=O)C(C#N)(C(=O)c1ccccc1C(F)(F)F)c1ccc(C(C)(C)C)cc1` (centres unmarked) [cyflumetofen]: in experiment [2], the Kd was 189 µM.

The record behind these values is PMC10501649, “A detoxification pathway initiated by a nuclear receptor TcHR96h in Tetranychus cinnabarinus (Boisduval)” (PLOS Genetics, 2023).
